These are literature values, as cited in patent US10314326B2, “Composition for reducing food intake” (Natures Remedies Ltd, priority 2009, dated 2019).

For data set [1] the following is noted: literature; for reduction in food/calorie intake: pharmacological options.
For data set [2] the following is noted: peripheral injection, human subjects.
The conditions of data set [3]: peripheral injection, rats.
For data set [4] the following is noted: 14 healthy volunteers.
The conditions of data set [5]: approximately 20 g per day for 7 days, human volunteers.

Where two headings read alike, the source gives them in different places. No end group written: not given here.

As for `O=C(O)CC(O)(C(=O)O)C(O)C(=O)O` (stereo not drawn) [HCA-SX, hydroxycitric acid], the “decrease in food intake” value in data set [1] (human studies) is 4%.
In the case of `CCN(CC)C(C)C(=O)c1ccccc1` (stereo not drawn) [diethylpropion], in data set [1], the “reduction in food/calorie intake” value is 11-15%.
As for `CNCCC(Oc1ccc(C(F)(F)F)cc1)c1ccccc1` (stereo not drawn) [fluoxetin], the “reduction in food/calorie intake” value in data set [1] was 13-16%.
Regarding `CC(C)CC(N(C)C)C1(c2ccc(Cl)cc2)CCC1` (stereo not drawn) [sibutramine], the “reduction in food/calorie intake” value in data set [1] was 12-26%.
For the compound beta-glucan, the “food intake and appetite ratings” value in data set [1] is on record as “not significantly reduced”.
For the compound fructooligosaccharides, the “food intake and appetite ratings” value in data set [1] is given as “not significantly reduced”.
Turning to “glucagon-like peptide-1 (7-36) amide (HAEGTFTSDVSSYLEGQAAKEFIAWLVKGR-NH2; UniProt P01275 98-127, looked up) [GLP-1, anorectic gut peptide secreted by the L-cells]”, the body weight entry in data set [2] and in data set [3] was “decreases” in each case. The food intake entry in data set [2] and in data set [3] was “decreases” in each case. In addition, the “motility in the antro-duodeno-jejunal region” value in data set [4] is given as “decreases”.
Regarding methylcellulose, the “food intake and appetite ratings” value in data set [1] is “not significantly reduced”.
For oligofructose, the “reduction in total intake” value in data set [1] (human studies) is given as 5%. In data set [5], the “serum GLP-1 levels” value was “increased”.
On to sodium alginate, for which the “reduction in energy intake” value in data set [1] (human studies) is 7%.
